Data taken from the kinase profiling compilation of Christmann-Franck et al. (2016).

How the values were obtained:
Assay in all cases: KINOMEscan competition binding
Settings in all cases: compound 10.0 µM
[1] = molecular target: ABL2 (human) (UniProt P42684)
[2] = molecular target: AKT2 (human) (UniProt P31751)
[3] = molecular target: ALK (human) (UniProt Q9UM73)
[4] = molecular target: AURKC (human) (UniProt Q9UQB9)
[5] = molecular target: CAMK2G (human) (UniProt Q13555)
[6] = molecular target: CDK18 (human) (UniProt Q07002)
[7] = molecular target: CIT (human) (UniProt O14578)
Chain of CIT (human) (O14578 whole entry, looked up): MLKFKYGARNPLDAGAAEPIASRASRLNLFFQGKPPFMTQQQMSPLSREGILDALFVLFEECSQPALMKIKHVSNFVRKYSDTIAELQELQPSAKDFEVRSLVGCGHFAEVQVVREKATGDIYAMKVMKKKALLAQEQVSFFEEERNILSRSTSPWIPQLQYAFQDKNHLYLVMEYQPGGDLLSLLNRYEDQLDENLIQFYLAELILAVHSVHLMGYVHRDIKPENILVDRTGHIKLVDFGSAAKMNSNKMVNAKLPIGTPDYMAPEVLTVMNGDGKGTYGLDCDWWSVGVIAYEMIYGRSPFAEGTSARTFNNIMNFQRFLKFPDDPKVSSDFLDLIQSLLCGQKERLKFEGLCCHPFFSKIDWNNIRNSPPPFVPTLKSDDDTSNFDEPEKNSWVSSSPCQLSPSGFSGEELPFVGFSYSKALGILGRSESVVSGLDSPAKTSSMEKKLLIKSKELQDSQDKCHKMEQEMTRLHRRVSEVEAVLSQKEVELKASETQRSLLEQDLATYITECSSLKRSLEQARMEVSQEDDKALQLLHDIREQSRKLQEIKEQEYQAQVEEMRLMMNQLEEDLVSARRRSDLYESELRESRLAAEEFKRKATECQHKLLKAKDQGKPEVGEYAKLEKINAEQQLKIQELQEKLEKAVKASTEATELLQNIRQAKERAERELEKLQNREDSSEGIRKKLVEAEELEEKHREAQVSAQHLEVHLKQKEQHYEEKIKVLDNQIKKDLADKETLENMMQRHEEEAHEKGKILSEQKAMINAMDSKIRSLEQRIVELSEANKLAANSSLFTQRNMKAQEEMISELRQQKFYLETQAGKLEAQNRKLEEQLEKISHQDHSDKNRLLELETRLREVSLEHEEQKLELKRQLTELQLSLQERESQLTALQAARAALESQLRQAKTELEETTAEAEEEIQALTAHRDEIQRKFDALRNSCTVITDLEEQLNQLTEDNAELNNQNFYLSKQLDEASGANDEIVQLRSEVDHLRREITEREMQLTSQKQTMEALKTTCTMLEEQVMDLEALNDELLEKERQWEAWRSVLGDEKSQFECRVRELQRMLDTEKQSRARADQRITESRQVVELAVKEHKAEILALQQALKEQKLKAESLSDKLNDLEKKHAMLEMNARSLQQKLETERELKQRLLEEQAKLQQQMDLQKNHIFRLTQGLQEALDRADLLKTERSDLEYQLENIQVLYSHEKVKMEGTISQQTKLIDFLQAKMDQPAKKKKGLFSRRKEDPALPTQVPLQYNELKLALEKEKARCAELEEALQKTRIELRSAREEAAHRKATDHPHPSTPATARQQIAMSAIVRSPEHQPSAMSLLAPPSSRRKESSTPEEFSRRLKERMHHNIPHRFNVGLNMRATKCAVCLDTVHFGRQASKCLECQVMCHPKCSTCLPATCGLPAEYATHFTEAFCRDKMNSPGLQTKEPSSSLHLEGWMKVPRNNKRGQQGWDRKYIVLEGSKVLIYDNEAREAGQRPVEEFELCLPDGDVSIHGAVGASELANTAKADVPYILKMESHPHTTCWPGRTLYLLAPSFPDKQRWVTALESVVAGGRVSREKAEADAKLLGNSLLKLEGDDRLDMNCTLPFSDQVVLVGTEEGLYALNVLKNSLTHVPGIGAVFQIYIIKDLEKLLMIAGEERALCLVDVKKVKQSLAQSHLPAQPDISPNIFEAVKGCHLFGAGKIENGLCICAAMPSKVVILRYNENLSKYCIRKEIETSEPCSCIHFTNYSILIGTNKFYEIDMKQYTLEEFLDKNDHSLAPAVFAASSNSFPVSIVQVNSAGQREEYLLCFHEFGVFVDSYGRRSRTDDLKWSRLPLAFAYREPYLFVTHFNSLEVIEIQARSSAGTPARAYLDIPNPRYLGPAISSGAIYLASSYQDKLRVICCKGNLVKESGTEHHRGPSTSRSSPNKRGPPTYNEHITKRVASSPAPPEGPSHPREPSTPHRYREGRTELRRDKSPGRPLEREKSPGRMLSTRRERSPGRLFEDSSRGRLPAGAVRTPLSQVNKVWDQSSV

[8] = molecular target: CLK1 (human) (UniProt P49759)
[9] = molecular target: CLK3 (human) (UniProt P49761)
[10] = molecular target: CSF1R (human) (UniProt P07333)
Chain of CSF1R (human) (P07333 whole entry, looked up): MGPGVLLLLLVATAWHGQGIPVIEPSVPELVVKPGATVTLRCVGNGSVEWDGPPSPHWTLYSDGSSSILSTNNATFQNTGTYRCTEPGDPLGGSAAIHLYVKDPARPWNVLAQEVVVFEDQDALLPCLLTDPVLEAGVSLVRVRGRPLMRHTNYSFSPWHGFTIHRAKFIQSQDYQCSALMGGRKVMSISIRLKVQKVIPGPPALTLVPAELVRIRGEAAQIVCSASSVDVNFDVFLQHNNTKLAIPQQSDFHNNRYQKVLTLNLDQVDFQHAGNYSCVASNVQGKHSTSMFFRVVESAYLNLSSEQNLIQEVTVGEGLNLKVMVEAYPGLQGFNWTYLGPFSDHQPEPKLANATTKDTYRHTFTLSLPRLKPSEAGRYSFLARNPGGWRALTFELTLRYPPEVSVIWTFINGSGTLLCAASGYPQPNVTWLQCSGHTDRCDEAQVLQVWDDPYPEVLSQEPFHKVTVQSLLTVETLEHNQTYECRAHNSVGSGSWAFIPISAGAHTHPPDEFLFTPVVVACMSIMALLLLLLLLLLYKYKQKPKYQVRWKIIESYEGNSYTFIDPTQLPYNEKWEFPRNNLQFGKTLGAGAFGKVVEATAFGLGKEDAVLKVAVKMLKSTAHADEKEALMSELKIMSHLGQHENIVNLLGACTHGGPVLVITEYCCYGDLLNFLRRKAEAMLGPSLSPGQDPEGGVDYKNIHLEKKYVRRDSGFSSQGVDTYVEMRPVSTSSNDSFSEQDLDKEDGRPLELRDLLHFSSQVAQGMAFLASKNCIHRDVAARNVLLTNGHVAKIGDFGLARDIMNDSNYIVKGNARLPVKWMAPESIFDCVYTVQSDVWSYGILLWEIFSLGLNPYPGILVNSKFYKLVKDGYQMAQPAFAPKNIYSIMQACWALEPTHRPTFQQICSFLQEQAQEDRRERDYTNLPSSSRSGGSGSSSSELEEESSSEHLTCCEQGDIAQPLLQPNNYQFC

[11] = molecular target: DCLK2 (human) (UniProt Q8N568)
[12] = molecular target: EPHA8 (human) (UniProt P29322)
[13] = molecular target: EPHB3 (human) (UniProt P54753)
[14] = molecular target: FRK (human) (UniProt P42685)
[15] = molecular target: HIPK1 (human) (UniProt Q86Z02)
[16] = molecular target: INSR (human) (UniProt P06213)
[17] = molecular target: MAP3K5 (human) (UniProt Q99683)
[18] = molecular target: MAPK4 (human) (UniProt P31152)
Chain of MAPK4 (human) (P31152 whole entry, looked up): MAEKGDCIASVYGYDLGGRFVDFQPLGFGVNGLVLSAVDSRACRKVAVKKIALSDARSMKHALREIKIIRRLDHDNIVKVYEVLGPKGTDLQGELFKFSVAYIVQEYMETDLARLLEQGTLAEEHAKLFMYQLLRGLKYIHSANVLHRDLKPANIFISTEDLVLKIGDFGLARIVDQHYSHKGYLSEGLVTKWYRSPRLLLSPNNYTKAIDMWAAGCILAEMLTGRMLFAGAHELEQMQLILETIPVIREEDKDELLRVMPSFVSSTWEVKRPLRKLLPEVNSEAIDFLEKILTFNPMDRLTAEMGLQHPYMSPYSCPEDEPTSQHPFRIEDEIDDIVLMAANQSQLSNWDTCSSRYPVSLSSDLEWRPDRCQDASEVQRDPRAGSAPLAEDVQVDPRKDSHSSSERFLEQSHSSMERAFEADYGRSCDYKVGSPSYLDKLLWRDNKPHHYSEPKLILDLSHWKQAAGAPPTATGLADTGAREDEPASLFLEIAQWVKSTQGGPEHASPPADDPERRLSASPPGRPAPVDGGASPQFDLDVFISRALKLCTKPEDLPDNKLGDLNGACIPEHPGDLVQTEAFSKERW

[19] = molecular target: MARK2 (human) (UniProt Q7KZI7)
[20] = molecular target: MUSK (human) (UniProt O15146)
[21] = molecular target: MYO3A (human) (UniProt Q8NEV4)
[22] = molecular target: NEK1 (human) (UniProt Q96PY6)
[23] = molecular target: NTRK1 (human) (UniProt P04629)
[24] = molecular target: PRKCQ (human) (UniProt Q04759)
[25] = molecular target: RIOK3 (human) (UniProt O14730)
[26] = molecular target: RIPK1 (human) (UniProt Q13546)
[27] = molecular target: RIPK4 (human) (UniProt P57078)
[28] = molecular target: RPS6KA6 KD2 (human) (UniProt Q9UK32)
[29] = molecular target: SIK2 (human) (UniProt Q9H0K1)
[30] = molecular target: SLK (human) (UniProt Q9H2G2)
[31] = molecular target: STK10 (human) (UniProt O94804)
[32] = molecular target: STK38L (human) (UniProt Q9Y2H1)
[33] = molecular target: TLK1 (human) (UniProt Q9UKI8)
Chain of TLK1 (human) (Q9UKI8 whole entry, looked up): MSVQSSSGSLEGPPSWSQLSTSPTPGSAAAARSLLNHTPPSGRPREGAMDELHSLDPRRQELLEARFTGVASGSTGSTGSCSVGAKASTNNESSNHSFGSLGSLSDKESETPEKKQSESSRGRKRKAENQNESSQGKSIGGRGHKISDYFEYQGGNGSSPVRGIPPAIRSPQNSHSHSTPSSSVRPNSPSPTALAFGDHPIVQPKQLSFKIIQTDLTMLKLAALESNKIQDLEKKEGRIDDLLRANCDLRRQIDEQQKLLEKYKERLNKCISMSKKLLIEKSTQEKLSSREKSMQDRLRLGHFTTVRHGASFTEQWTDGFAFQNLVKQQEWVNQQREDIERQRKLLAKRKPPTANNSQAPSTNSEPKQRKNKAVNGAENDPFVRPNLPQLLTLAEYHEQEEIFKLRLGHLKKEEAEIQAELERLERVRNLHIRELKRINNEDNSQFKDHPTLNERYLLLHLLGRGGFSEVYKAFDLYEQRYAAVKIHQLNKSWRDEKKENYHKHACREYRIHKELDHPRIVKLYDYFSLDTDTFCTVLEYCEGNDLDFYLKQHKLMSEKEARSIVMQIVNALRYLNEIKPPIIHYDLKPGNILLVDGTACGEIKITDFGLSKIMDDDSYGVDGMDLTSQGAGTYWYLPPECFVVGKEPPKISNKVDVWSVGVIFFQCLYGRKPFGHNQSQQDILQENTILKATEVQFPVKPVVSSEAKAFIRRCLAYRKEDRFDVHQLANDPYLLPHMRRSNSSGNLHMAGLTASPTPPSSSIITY

[34] = molecular target: TYRO3 (human) (UniProt Q06418)
[35] = molecular target: WEE1 (human) (UniProt P30291)
Chain of WEE1 (human) (P30291 whole entry, looked up): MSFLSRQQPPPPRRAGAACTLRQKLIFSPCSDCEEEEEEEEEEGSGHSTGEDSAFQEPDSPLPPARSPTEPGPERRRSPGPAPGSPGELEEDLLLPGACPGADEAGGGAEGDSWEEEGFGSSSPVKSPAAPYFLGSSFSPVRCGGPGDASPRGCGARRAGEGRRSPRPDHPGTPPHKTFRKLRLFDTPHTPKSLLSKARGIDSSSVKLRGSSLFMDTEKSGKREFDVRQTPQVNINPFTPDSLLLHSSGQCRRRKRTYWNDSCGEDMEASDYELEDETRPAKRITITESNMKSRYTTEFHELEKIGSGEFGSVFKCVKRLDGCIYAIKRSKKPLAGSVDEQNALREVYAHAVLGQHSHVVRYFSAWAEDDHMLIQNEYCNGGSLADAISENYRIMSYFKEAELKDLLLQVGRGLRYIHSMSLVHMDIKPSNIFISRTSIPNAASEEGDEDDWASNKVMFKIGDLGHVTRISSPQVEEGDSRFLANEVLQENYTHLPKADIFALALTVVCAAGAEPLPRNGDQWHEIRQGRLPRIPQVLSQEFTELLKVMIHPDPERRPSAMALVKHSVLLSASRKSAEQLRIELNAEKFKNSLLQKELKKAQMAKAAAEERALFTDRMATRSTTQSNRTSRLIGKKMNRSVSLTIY

[36] = tested on: ABL1 (human), P00519 [M351T]
[37] = tested on: FLT3 (human), P36888 [N841I]
[38] = molecular target: JAK3 JH1 catalytic (human) (UniProt P52333)
[39] = molecular target: RAF1 (human) (UniProt P04049)
[40] = molecular target: STK35 (human) (UniProt Q8TDR2)

Row | Structure (SMILES) | kinase still bound, per cent of control [1] [%] | kinase still bound, per cent of control [2] [%] | kinase still bound, per cent of control [4] [%] | kinase still bound, per cent of control [5] [%] | kinase still bound, per cent of control [6] [%] | kinase still bound, per cent of control [7] [%] | kinase still bound, per cent of control [8] [%] | kinase still bound, per cent of control [9] [%] | kinase still bound, per cent of control [10] [%] | kinase still bound, per cent of control [11] [%] | kinase still bound, per cent of control [12] [%] | kinase still bound, per cent of control [13] [%] | kinase still bound, per cent of control [14] [%] | kinase still bound, per cent of control [15] [%] | kinase still bound, per cent of control [17] [%] | kinase still bound, per cent of control [18] [%] | kinase still bound, per cent of control [19] [%] | kinase still bound, per cent of control [20] [%] | kinase still bound, per cent of control [21] [%] | kinase still bound, per cent of control [22] [%] | other results
1 | O=C(O)c1ccc(Nc2ncc3c(n2)-c2ccc(Cl)cc2C(c2c(F)cccc2F)=NC3)cc1 | 30 | 100 | 20 | 98 | 100 | 37 | 63 | 14 | 38 | 94 | 99 | 29 | 73 | 14 | 100 | 66 | 93 | 93 | 80 | 56 | kinase still bound, per cent of control [3]: 48%; kinase still bound, per cent of control [16]: 59%; kinase still bound, per cent of control [23]: 35%; kinase still bound, per cent of control [24]: 98%; kinase still bound, per cent of control [25]: 100%; kinase still bound, per cent of control [26]: 100%; kinase still bound, per cent of control [27]: 100%; kinase still bound, per cent of control [28]: 58%; kinase still bound, per cent of control [29]: 49%; kinase still bound, per cent of control [30]: 80%; kinase still bound, per cent of control [31]: 6.7%; kinase still bound, per cent of control [32]: 100%; kinase still bound, per cent of control [33]: 77%; kinase still bound, per cent of control [34]: 46%; kinase still bound, per cent of control [35]: 100%
2 | Cn1c(=O)n(-c2ccc(C(C)(C)C#N)cc2)c2c3cc(-c4cnc5ccccc5c4)ccc3ncc21 | 100 | 100 | 100 | 100 | 100 | 100 | 23 | 100 | 100 | 100 | 100 | 100 | 100 | 100 | 100 | 100 | 100 | 100 | 100 | 100 | kinase still bound, per cent of control [36]: 100%; kinase still bound, per cent of control [3]: 100%; kinase still bound, per cent of control [37]: 100%; kinase still bound, per cent of control [16]: 100%; kinase still bound, per cent of control [38]: 100%; kinase still bound, per cent of control [24]: 100%; kinase still bound, per cent of control [39]: 100%; kinase still bound, per cent of control [25]: 100%; kinase still bound, per cent of control [26]: 100%; kinase still bound, per cent of control [27]: 100%; kinase still bound, per cent of control [28]: 100%; kinase still bound, per cent of control [29]: 100%; kinase still bound, per cent of control [30]: 100%; kinase still bound, per cent of control [31]: 100%; kinase still bound, per cent of control [40]: 100%; kinase still bound, per cent of control [32]: 100%; kinase still bound, per cent of control [33]: 100%; kinase still bound, per cent of control [34]: 100%; kinase still bound, per cent of control [35]: 100%
3 | CCOc1cc2ncc(C#N)c(Nc3ccc(OCc4ccccn4)c(Cl)c3)c2cc1NC(=O)/C=C/CN(C)C | 92 | 99 | 95 | 95 | 96 | 95 | 84 | 86 | 68 | 100 | 78 | 100 | 100 | 71 | 100 | 100 | 86 | 100 | 98 | 70 | kinase still bound, per cent of control [36]: 100%; kinase still bound, per cent of control [3]: 100%; kinase still bound, per cent of control [37]: 64%; kinase still bound, per cent of control [16]: 46%; kinase still bound, per cent of control [38]: 100%; kinase still bound, per cent of control [23]: 77%; kinase still bound, per cent of control [24]: 100%; kinase still bound, per cent of control [39]: 100%; kinase still bound, per cent of control [25]: 97%; kinase still bound, per cent of control [26]: 100%; kinase still bound, per cent of control [27]: 77%; kinase still bound, per cent of control [28]: 97%; kinase still bound, per cent of control [29]: 58%; kinase still bound, per cent of control [30]: 1.4%; kinase still bound, per cent of control [31]: 0%; kinase still bound, per cent of control [32]: 100%; kinase still bound, per cent of control [33]: 86%; kinase still bound, per cent of control [34]: 100%; kinase still bound, per cent of control [35]: 57%
4 | CC[C@@H]1C(=O)N(C)c2cnc(Nc3ccc(C(=O)NC4CCN(C)CC4)cc3OC)nc2N1C1CCCC1 | 100 | 100 | 100 | 100 | 100 | 100 | 100 | 29 | 100 | 13 | 100 | 100 | 100 | 100 | 100 | 100 | 100 | 100 | 100 | 100 | kinase still bound, per cent of control [36]: 100%; kinase still bound, per cent of control [37]: 100%; kinase still bound, per cent of control [38]: 100%; kinase still bound, per cent of control [24]: 100%; kinase still bound, per cent of control [39]: 100%; kinase still bound, per cent of control [25]: 100%; kinase still bound, per cent of control [26]: 100%; kinase still bound, per cent of control [27]: 100%; kinase still bound, per cent of control [28]: 8.3%; kinase still bound, per cent of control [29]: 100%; kinase still bound, per cent of control [30]: 3%; kinase still bound, per cent of control [31]: 100%; kinase still bound, per cent of control [40]: 100%; kinase still bound, per cent of control [32]: 100%; kinase still bound, per cent of control [33]: 100%; kinase still bound, per cent of control [34]: 100%; kinase still bound, per cent of control [35]: 100%
